The text below walks through data of the supplement of paper PMC10307832.

The subject of the first test is SK-LU-1. In words: relative viability (nuclei count vs DMSO), 5 days (fraction); higher = more cells survive. The conditions noted are these: first compound 2.53 µM. A digest of the protocol:
(§1)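 Cells from lung cancer lines were seeded into 1536-well plates and, one day later, dosed by pin tool. Treatments were either a single drug or a fixed dose of an anchor drug with five library-drug doses (not always all listed) in √10 steps. After 5 days, nuclei were stained in a one-step fixation (final 0.05% Triton X-100, 1% formaldehyde, 1 ug/ml Hoechst) and counted on 4× images, and relative viability is the treated-to-vehicle nuclei ratio, as the median of duplicate plates.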
Regarding `CCCCCCCCCCCC1=C(O)C(=O)C=C(O)C1=O` [Embelin] + O=C(CCCCCCC(=O)Nc1ccccc1)NO [Vorinostat] (partner 1 µM), the relative viability came to 0.75.

Turning to `CCCCCCCCCCCC1=C(O)C(=O)C=C(O)C1=O` [Embelin] + O=C(c1cc(Cc2n[nH]c(=O)c3ccccc23)ccc1F)N1CCN(C(=O)C2CC2)CC1 [Olaparib] (partner 8 µM), the relative viability is 0.505.

As to `CCCCCCCCCCCC1=C(O)C(=O)C=C(O)C1=O` [Embelin] + Cc1cc(Nc2cc(N3CCN(C)CC3)nc(Sc3ccc(NC(=O)C4CC4)cc3)n2)n[nH]1 [Tozasertib] (partner 0.1 µM), the relative viability came out at 0.379.

In turn, `CCCCCCCCCCCC1=C(O)C(=O)C=C(O)C1=O` [Embelin] + Nc1ncn([C@H]2C[C@H](O)[C@@H](CO)O2)c(=O)n1 [Decitabine] (partner 2 µM) gave a relative viability of 0.709.

Consider `CCCCCCCCCCCC1=C(O)C(=O)C=C(O)C1=O` [Embelin] + CC(=O)c1c(C)c2cnc(Nc3ccc(N4CCNCC4)cn3)nc2n(C2CCCC2)c1=O [Palbociclib] (partner 0.5 µM), for which the relative viability came out at 0.621.

The test is the same for the next values; noted with them: first compound 8 µM.
For the molecule `CCCCCCCCCCCC1=C(O)C(=O)C=C(O)C1=O` [Embelin] + O=C(CCCCCCC(=O)Nc1ccccc1)NO [Vorinostat] (partner 1 µM), the relative viability turned out to be 0.518.

In turn, `CCCCCCCCCCCC1=C(O)C(=O)C=C(O)C1=O` [Embelin] + O=C(c1cc(Cc2n[nH]c(=O)c3ccccc23)ccc1F)N1CCN(C(=O)C2CC2)CC1 [Olaparib] (partner 8 µM) returned a relative viability of 0.433.

As for `CCCCCCCCCCCC1=C(O)C(=O)C=C(O)C1=O` [Embelin] + Cc1cc(Nc2cc(N3CCN(C)CC3)nc(Sc3ccc(NC(=O)C4CC4)cc3)n2)n[nH]1 [Tozasertib] (partner 0.1 µM), the relative viability was found to be 0.323.

In turn, `CCCCCCCCCCCC1=C(O)C(=O)C=C(O)C1=O` [Embelin] + Nc1ncn([C@H]2C[C@H](O)[C@@H](CO)O2)c(=O)n1 [Decitabine] (partner 2 µM) returned a relative viability of 0.641.

`CCCCCCCCCCCC1=C(O)C(=O)C=C(O)C1=O` [Embelin] + CC(=O)c1c(C)c2cnc(Nc3ccc(N4CCNCC4)cn3)nc2n(C2CCCC2)c1=O [Palbociclib] (partner 0.5 µM) returned a relative viability of 0.274.

The test system of a further test is SW 1573. The test is described as above. The conditions noted are these: first compound 0.08 µM. A digest of the protocol:
as §1
Turning to `CCCCCCCCCCCC1=C(O)C(=O)C=C(O)C1=O` [Embelin] + O=C(CCCCCCC(=O)Nc1ccccc1)NO [Vorinostat] (partner 1 µM), the relative viability came out at 0.7.

Turning to `CCCCCCCCCCCC1=C(O)C(=O)C=C(O)C1=O` [Embelin] + O=C(c1cc(Cc2n[nH]c(=O)c3ccccc23)ccc1F)N1CCN(C(=O)C2CC2)CC1 [Olaparib] (partner 8 µM), the relative viability was found to be 0.545.

As to `CCCCCCCCCCCC1=C(O)C(=O)C=C(O)C1=O` [Embelin] + Cc1cc(Nc2cc(N3CCN(C)CC3)nc(Sc3ccc(NC(=O)C4CC4)cc3)n2)n[nH]1 [Tozasertib] (partner 0.1 µM), the relative viability was 0.18.

`CCCCCCCCCCCC1=C(O)C(=O)C=C(O)C1=O` [Embelin] + Nc1ncn([C@H]2C[C@H](O)[C@@H](CO)O2)c(=O)n1 [Decitabine] (partner 2 µM) registered a relative viability of 0.422.

`CCCCCCCCCCCC1=C(O)C(=O)C=C(O)C1=O` [Embelin] + CC(=O)c1c(C)c2cnc(Nc3ccc(N4CCNCC4)cn3)nc2n(C2CCCC2)c1=O [Palbociclib] (partner 0.5 µM) gave a relative viability of 0.344.

The test is the same for the next values; noted with them: first compound 0.8 µM.
Consider `CCCCCCCCCCCC1=C(O)C(=O)C=C(O)C1=O` [Embelin] + O=C(CCCCCCC(=O)Nc1ccccc1)NO [Vorinostat] (partner 1 µM), for which the relative viability worked out at 1.1.

`CCCCCCCCCCCC1=C(O)C(=O)C=C(O)C1=O` [Embelin] + O=C(c1cc(Cc2n[nH]c(=O)c3ccccc23)ccc1F)N1CCN(C(=O)C2CC2)CC1 [Olaparib] (partner 8 µM): the relative viability is 0.561.

As for `CCCCCCCCCCCC1=C(O)C(=O)C=C(O)C1=O` [Embelin] + Cc1cc(Nc2cc(N3CCN(C)CC3)nc(Sc3ccc(NC(=O)C4CC4)cc3)n2)n[nH]1 [Tozasertib] (partner 0.1 µM), the relative viability is 0.25.

In the case of `CCCCCCCCCCCC1=C(O)C(=O)C=C(O)C1=O` [Embelin] + Nc1ncn([C@H]2C[C@H](O)[C@@H](CO)O2)c(=O)n1 [Decitabine] (partner 2 µM), the relative viability stood at 0.674.

In turn, `CCCCCCCCCCCC1=C(O)C(=O)C=C(O)C1=O` [Embelin] + CC(=O)c1c(C)c2cnc(Nc3ccc(N4CCNCC4)cn3)nc2n(C2CCCC2)c1=O [Palbociclib] (partner 0.5 µM) yielded a relative viability of 0.498.

Staying with this test, now noted: first compound 2.53 µM.
As for `CCCCCCCCCCCC1=C(O)C(=O)C=C(O)C1=O` [Embelin] + O=C(CCCCCCC(=O)Nc1ccccc1)NO [Vorinostat] (partner 1 µM), the relative viability turned out to be 0.817.

In the case of `CCCCCCCCCCCC1=C(O)C(=O)C=C(O)C1=O` [Embelin] + O=C(c1cc(Cc2n[nH]c(=O)c3ccccc23)ccc1F)N1CCN(C(=O)C2CC2)CC1 [Olaparib] (partner 8 µM), the relative viability turned out to be 0.443.

For `CCCCCCCCCCCC1=C(O)C(=O)C=C(O)C1=O` [Embelin] + Cc1cc(Nc2cc(N3CCN(C)CC3)nc(Sc3ccc(NC(=O)C4CC4)cc3)n2)n[nH]1 [Tozasertib] (partner 0.1 µM), the relative viability was determined as 0.167.

On to `CCCCCCCCCCCC1=C(O)C(=O)C=C(O)C1=O` [Embelin] + Nc1ncn([C@H]2C[C@H](O)[C@@H](CO)O2)c(=O)n1 [Decitabine] (partner 2 µM), for which the relative viability stood at 0.654.

`CCCCCCCCCCCC1=C(O)C(=O)C=C(O)C1=O` [Embelin] + CC(=O)c1c(C)c2cnc(Nc3ccc(N4CCNCC4)cn3)nc2n(C2CCCC2)c1=O [Palbociclib] (partner 0.5 µM) came in with a relative viability of 0.37.

Staying with this test, now noted: first compound 8 µM.
In the case of `CCCCCCCCCCCC1=C(O)C(=O)C=C(O)C1=O` [Embelin] + O=C(CCCCCCC(=O)Nc1ccccc1)NO [Vorinostat] (partner 1 µM), the relative viability is 0.716.

Take `CCCCCCCCCCCC1=C(O)C(=O)C=C(O)C1=O` [Embelin] + O=C(c1cc(Cc2n[nH]c(=O)c3ccccc23)ccc1F)N1CCN(C(=O)C2CC2)CC1 [Olaparib] (partner 8 µM): the relative viability amounted to 0.47.

In turn, `CCCCCCCCCCCC1=C(O)C(=O)C=C(O)C1=O` [Embelin] + Cc1cc(Nc2cc(N3CCN(C)CC3)nc(Sc3ccc(NC(=O)C4CC4)cc3)n2)n[nH]1 [Tozasertib] (partner 0.1 µM) displayed a relative viability of 0.187.

For `CCCCCCCCCCCC1=C(O)C(=O)C=C(O)C1=O` [Embelin] + Nc1ncn([C@H]2C[C@H](O)[C@@H](CO)O2)c(=O)n1 [Decitabine] (partner 2 µM), the relative viability is 0.456.

`CCCCCCCCCCCC1=C(O)C(=O)C=C(O)C1=O` [Embelin] + CC(=O)c1c(C)c2cnc(Nc3ccc(N4CCNCC4)cn3)nc2n(C2CCCC2)c1=O [Palbociclib] (partner 0.5 µM) gave a relative viability of 0.422.
